Laboratory results as given in US6706740B2, “Fungicidal heterocyclic aromatic amides and their compositions, methods of use and preparation” (Dow AgroSciences LLC, priority 1999, dated 2004).

How the values were obtained:
[1] = system: Leptosphaeria nodorum—LEPTNO; assay: Glume Blotch of Wheat, in vivo whole plant, 24 Hour Protectant; conditions: Leptosphaeria; wheat plants sprayed at 100 ppm, inoculated after 24 hours; control of fungal infection vs untreated plants; read-out: LEPTNO in vivo 1 Day Protectant
[2] = system: Stagonospora nodorum (Leptosphaeria nodorum—LEPTNO); assay: In vitro fungal growth inhibition, Stagonospora nodorum (LEPTNO); format: cell-based; conditions: Leptosphaeria; 25 ppm in the growth medium; read-out: LEPTNO in vitro Growth Inhibition
[3] = system: Mycosphaerella graminicola (Septoria tritici—SEPTTR); assay: In vitro fungal growth inhibition, Mycosphaerella graminicola (SEPTTR); format: cell-based; conditions: Zymoseptoria tritici; 25 ppm in the growth medium; read-out: SEPTTR in vitro Growth Inhibition
Ustilago maydis (USTIMA) = assay: microbe, parasite or virus in culture; format: cell-based; conditions: Mycosarcoma maydis, read-out: USTIMA in vitro Growth Inhibition
Erysiphe graminis—ERYSGT = assay: Powdery Mildew of Wheat, in vivo whole plant, 24 Hour Protectant; conditions: Erysiphe; wheat plants sprayed at 100 ppm, inoculated after 24 hours; control of fungal infection vs untreated plants; read-out: ERYSGT in vivo 1 Day Protectant
[4] = system: Phytophthora infestans—PHYTIN; assay: whole plant or invertebrate; format: in vivo; conditions: Phytophthora, in Solanum lycopersicum, 24 h, read-out: PHYTIN in vivo 1 Day Protectant
Septoria tritici—SEPTTR = assay: Leaf Blotch of Wheat, in vivo whole plant, 24 Hour Protectant; conditions: Zymoseptoria tritici, 24 h, wheat plants sprayed at 100 ppm, inoculated after 24 hours; control of fungal infection vs untreated plants; read-out: SEPTTR in vivo 1 Day Protectant
[5] = system: Puccinia recondita—PUCCRT; assay: Brown Rust of Wheat, in vivo whole plant, 24 Hour Protectant; conditions: Puccinia; wheat plants sprayed at 100 ppm, inoculated after 24 hours; control of fungal infection vs untreated plants; read-out: PUCCRT in vivo 1 Day Protectant
[6] = system: Rhizoctonia solani (RHIZSO); assay: microbe, parasite or virus in culture; format: cell-based; conditions: Rhizoctonia solani, read-out: RHIZSO in vitro Growth Inhibition
[7] = system: Magnaporthe grisea (Pyricularia oryzae—PYRIOR); assay: microbe, parasite or virus in culture; format: cell-based; conditions: Pyricularia oryzae, read-out: PYRIOR in vitro Growth Inhibition
[8] = system: Phytophthora infestans (PHYTIN); assay: microbe, parasite or virus in culture; format: cell-based; conditions: Phytophthora infestans, read-out: PHYTIN in vitro Growth Inhibition

Row | Compound | pest or weed control at 100 ppm [1] | inhibition at 25 ppm [2] | inhibition at 25 ppm [3] | inhibition at 25 ppm (Ustilago maydis (USTIMA)) | pest or weed control at 100 ppm (Erysiphe graminis—ERYSGT) | melting point | pest or weed control at 100 ppm [4] | pest or weed control at 100 ppm (Septoria tritici—SEPTTR) | pest or weed control at 100 ppm [5] | inhibition at 25 ppm [6] | inhibition at 25 ppm [7] | inhibition at 25 ppm [8]
1 | CC(C)C(=O)O[C@H]1[C@H](C)OC(=O)[C@@H](NC(=O)c2cnccc2O)COC(=O)[C@@H]1Cc1ccccc1 [Compound 503] | 25 to 74% | > 80% | > 80% | < 80% | 25 to 74% | 213 to 215 °C (dec.) | < 25% | < 25% | 25 to 74% | < 80% | < 80% | < 80%
2 | CC(C)(C)C1CCC(NC(=O)c2cnccc2O)CC1 (stereo not drawn) [Compound 504] | 25 to 74% | > 80% | < 80% | < 80% | < 25% | 70 to 78 °C | < 25% | < 25% | < 25% | < 80% | < 80% | < 80%
3 | CC(C)(C)CNC(=O)c1cccnc1O [Compound 514] | 25 to 74% | < 80% | < 80% | < 80% | < 25% | 180 to 181 °C | < 25% | < 25% | < 25% | < 80% | < 80% | < 80%
4 | O=C(NC1CCCCC1)c1cccnc1O [Compound 515] | < 25% | < 80% | < 80% | < 80% | < 25% | 190 to 192 °C | < 25% | 25 to 74% | < 25% | < 80% | < 80% | < 80%
5 | COc1cccc(CNC(=O)c2cccnc2O)c1OC [Compound 516] | < 25% | < 80% | < 80% | < 80% | < 25% | 193 to 194 °C | < 25% | < 25% | < 25% | < 80% | < 80% | < 80%
6 | O=C(NCc1ccc(Cl)c(Cl)c1)c1cccnc1O [Compound 517] | 25 to 74% | < 80% | < 80% | < 80% | < 25% | 229 to 230 °C | < 25% | < 25% | < 25% | < 80% | < 80% | < 80%
7 | O=C(NCCc1ccc(Cl)cc1)c1cccnc1O [Compound 518] | < 25% | < 80% | < 80% | < 80% | < 25% | 219 to 221 °C | 25 to 74% | < 25% | < 25% | < 80% | < 80% | < 80%
8 | O=C(NC(Cc1ccccc1)c1ccccc1)c1cccnc1O (stereo not drawn) [Compound 519] | 25 to 74% | < 80% | < 80% | < 80% | < 25% | 190 to 192 °C | < 25% | < 25% | < 25% | < 80% | < 80% | < 80%
